This is an account of results in patent US20250289806A1, “COMPOUNDS FOR PROLIFERATIVE DISORDERS” (UNIVERSITY OF MIAMI, priority 2022, published 2025).

What all share (type): biochemical
One assay concerns the target T1, MYLK4 (Homo sapiens, UniProt Q86YV6).
T1 construct: purchased Reaction Biology Corporation
T1 sequence (Q86YV6 1-388): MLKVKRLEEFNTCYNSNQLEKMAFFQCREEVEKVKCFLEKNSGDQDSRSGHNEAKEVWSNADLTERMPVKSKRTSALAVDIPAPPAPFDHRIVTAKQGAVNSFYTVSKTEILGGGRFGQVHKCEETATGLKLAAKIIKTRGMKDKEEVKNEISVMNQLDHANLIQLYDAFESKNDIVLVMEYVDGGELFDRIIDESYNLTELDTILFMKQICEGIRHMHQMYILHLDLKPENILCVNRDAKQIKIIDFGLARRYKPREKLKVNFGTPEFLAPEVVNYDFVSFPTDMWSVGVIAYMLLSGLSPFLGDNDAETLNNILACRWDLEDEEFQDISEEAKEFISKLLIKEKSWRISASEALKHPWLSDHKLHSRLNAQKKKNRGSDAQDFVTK
As to the kind of experiment: Enzymatic activity assay (Reaction Biology Corporation), MYLK4. The method, then:
(§1) All enzymatic assays and panel profiling studies are activity assays, which were carried out by Reaction Biology Corporation according to the company's protocols.

A further assay concerns the target T2, STK17A (Homo sapiens, UniProt Q9UEE5).
T2 construct: purchased Reaction Biology Corporation
T2 sequence (Q9UEE5 1-414): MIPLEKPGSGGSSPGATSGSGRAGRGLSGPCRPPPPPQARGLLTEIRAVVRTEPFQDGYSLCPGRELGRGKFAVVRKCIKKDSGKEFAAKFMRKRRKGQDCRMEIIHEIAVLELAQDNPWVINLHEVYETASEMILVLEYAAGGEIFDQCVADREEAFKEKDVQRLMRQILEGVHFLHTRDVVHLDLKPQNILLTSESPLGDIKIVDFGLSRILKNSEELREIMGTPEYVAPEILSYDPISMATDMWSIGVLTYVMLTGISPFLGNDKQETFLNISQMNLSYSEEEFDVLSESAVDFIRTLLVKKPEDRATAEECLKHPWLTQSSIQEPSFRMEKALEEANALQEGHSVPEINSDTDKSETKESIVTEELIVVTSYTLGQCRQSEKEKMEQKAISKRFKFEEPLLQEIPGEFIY
As to the kind of experiment: Enzymatic activity assay (Reaction Biology Corporation), STK17A. As to the method:
as §1

The target of the next assay is T3, DDR1 (Homo sapiens, UniProt Q08345).
T3 construct: purchased Reaction Biology Corporation
T3 sequence (Q08345 19-913): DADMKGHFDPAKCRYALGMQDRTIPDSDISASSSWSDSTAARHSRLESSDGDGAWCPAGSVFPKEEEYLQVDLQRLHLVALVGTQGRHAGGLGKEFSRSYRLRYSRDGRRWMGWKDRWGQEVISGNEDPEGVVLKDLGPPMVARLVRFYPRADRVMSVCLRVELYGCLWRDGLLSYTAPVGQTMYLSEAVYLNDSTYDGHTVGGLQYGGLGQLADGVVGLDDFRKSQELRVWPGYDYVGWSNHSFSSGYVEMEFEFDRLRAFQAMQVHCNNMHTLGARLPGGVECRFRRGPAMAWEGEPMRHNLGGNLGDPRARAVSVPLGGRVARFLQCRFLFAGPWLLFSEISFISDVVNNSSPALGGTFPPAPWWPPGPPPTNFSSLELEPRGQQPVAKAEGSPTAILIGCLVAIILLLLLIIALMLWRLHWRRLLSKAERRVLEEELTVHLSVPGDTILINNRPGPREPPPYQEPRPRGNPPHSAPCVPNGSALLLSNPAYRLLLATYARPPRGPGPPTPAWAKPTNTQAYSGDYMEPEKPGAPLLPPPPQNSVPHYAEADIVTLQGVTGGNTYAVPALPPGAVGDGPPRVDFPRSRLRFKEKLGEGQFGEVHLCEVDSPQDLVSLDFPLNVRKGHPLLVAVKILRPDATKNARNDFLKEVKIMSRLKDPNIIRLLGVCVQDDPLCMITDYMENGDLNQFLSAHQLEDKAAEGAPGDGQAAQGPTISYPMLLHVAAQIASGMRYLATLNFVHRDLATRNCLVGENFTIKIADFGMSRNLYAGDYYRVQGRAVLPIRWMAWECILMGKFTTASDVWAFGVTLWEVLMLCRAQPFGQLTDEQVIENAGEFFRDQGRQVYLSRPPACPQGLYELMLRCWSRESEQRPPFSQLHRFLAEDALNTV
As to the kind of experiment: Enzymatic activity assay (Reaction Biology Corporation), DDR1. As to the method:
as §1

The mark [1] stands for this setting: enzymatic activity assay, read-out: IC50 STK17A.
Setting [2] is: enzymatic activity assay, read-out: IC50 MYLK4.

Where two headings read alike, the source gives them in different places.

As usually defined, the IC50 is the concentration at which inhibition is half-maximal.

In the case of `c1cc(-c2ccc3nc(N4CCCC4)ncc3c2)nc(Nc2ccc(N3CCNCC3)nc2)n1` [Example 4], the IC50 against MYLK4 and on STK17A (setting [1]) was below 50 nM throughout.
Regarding `CC(C)NC(=O)c1cccc(Nc2nccc(-c3ccc4nc(N5CCCC5)ncc4c3)n2)c1` [Example 6], the IC50 on STK17A (setting [1]) was above 100 nM.
For the compound `CC(C)NC(=O)c1ccc(Nc2nccc(-c3ccc4nc(N5CCOCC5)ncc4c3)n2)cc1` [Example 20], the IC50 against DDR1 was above 100 nM; on MYLK4 it was 50 to 100 nM; at STK17A (setting [1]), below 50 nM.
`c1cc(-c2ccc3nc(N4CCCC4)ncc3c2)nc(Nc2cnn(C3CCNCC3)c2)n1` [Example 3]: the IC50 at DDR1 is 50 to 100 nM; at MYLK4 (setting [2]), below 50 nM; at STK17A (setting [1]), below 50 nM.
`c1cc(-c2ccc3nc(N4CCOCC4)ncc3c2)nc(Nc2ccc(N3CCNCC3)cc2)n1` [Example 26]: the IC50 at MYLK4 and at STK17A (setting [1]) was below 50 nM each time.
For the compound `O=C(NC1CCNCC1)c1ccc(Nc2nccc(-c3ccc4nc(N5CCCC5)ncc4c3)n2)cc1` [Example 5], the IC50 at STK17A (setting [1]) is above 100 nM.
Regarding `OCCN1CCC(n2cc(Nc3nccc(-c4ccc5nc(N6CCOCC6)ncc5c4)n3)cn2)CC1` [Example 29], the IC50 at DDR1 and at STK17A (setting [1]) was below 50 nM in each case.
Consider `OCCn1cc(Nc2nccc(-c3ccc4nc(N5CCOCC5)ncc4c3)n2)cn1` [Example 28], for which the IC50 on MYLK4 (setting [2]) and on STK17A (setting [1]) was below 50 nM each time.
Consider `c1cc(-c2ccc3nc(N4CCCC4)ncc3c2)nc(Nc2ccc(N3CCNCC3)cc2)n1` [Example 1, N-(4-(piperazin-1-yl)phenyl)-4-(2-(pyrrolidin-1-yl)quinazolin-6-yl)pyrimidin-2-amine], for which the IC50 at MYLK4 was below 50 nM; against STK17A, 50 to 100 nM.
In the case of `c1cc(-c2ccc3nc(N4CCCC4)ncc3c2)nc(Nc2ccc(N3CCOCC3)cc2)n1` [Example 2], the IC50 at MYLK4 and on STK17A (setting [1]) was below 50 nM each time.
